Assay results as given in ChEMBL document CHEMBL2021859, “Practical access to four stereoisomers of naftidrofuryl and their binding affinity towards 5-hydroxytryptamine 2A receptor” (Bioorg Med Chem Lett, 2012).
pKi: −log10 of the molar value. Where a name gives a salt, the structure may show the parent alone.

Molecular target: 5-hydroxytryptamine receptor 2A (Homo sapiens, UniProt P28223)
Test: Displacement of [3H]ketanserin from 5HT2A receptor expressed in HEK293 cells by liquid scintillation spectrophotometry
Format: cell-based
Details: for pKi: read-out: Ki; for Ki: read-out: pKi (converted)

Sequence of 5-hydroxytryptamine receptor 2A (P28223 whole entry): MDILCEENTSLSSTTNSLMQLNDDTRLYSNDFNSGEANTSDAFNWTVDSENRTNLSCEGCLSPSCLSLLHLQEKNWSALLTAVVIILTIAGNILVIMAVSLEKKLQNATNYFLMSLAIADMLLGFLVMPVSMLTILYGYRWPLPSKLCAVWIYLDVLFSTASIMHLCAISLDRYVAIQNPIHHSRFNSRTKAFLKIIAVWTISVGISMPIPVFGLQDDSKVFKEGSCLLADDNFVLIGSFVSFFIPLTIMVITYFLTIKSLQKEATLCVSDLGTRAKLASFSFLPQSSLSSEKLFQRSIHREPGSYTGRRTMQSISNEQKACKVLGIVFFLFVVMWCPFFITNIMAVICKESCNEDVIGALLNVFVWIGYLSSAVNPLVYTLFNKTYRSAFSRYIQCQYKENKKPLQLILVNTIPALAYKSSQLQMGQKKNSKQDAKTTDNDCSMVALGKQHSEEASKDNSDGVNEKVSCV

| SMILES | pKi | Ki |
| --- | --- | --- |
| CCN(CC)CCOC(=O)C(Cc1cccc2ccccc12)CC1CCCO1 (stereo not given) [NAFRONYL OXALATE] | 6.59 | 331 nM |
| CCN(CC)CCOC(=O)[C@H](Cc1cccc2ccccc12)C[C@H]1CCCO1 | 5.68 | 2290 nM |
| CCN(CC)CCOC(=O)[C@@H](Cc1cccc2ccccc12)C[C@@H]1CCCO1 | 6.82 | 282 nM |
| CCN(CC)CCOC(=O)[C@@H](Cc1cccc2ccccc12)C[C@H]1CCCO1 | 6.82 | 145 nM |
| CCN(CC)CCOC(=O)[C@H](Cc1cccc2ccccc12)C[C@@H]1CCCO1 | 6.01 | 1700 nM |
